From ChEMBL document CHEMBL4422633, “Antioxidant-Inspired Drug Discovery: Antitumor Metabolite Is Formed in Situ from a Hydroxycinnamic Acid Derivative upon Free-Radical Scavenging” (J Med Chem, 2019)
The source made the active and inactive calls. No cut-off for these calls is given here.

Columns and labels:
NCI-H460 [1] = experiment: Induction of apoptosis in human NCI-H460 cells assessed as late apoptotic cells at 10 uM after 24 hrs by Annexin V/propidium iodide-staining based flow cytometry (reference value: 0.93 +/- 0.04%); format: functional
A549 [2] = experiment: Induction of apoptosis in human A549 cells assessed as viable cells at 10 uM after 24 hrs by Annexin V/propidium iodide-staining based flow cytometry (reference value: 96.45 +/- 2.89%); format: functional; conditions: A549, 24 h, read-out: Activity
Homo sapiens [3] = species on record: Homo sapiens; experiment: Induction of ROS generation in human NCI-H460/R cells transfected with MDR assessed as increase DHE positive cells at 10 uM after 24 hrs by DHE-staining based flow cytometry; format: functional, cell-based
[4] = Induction of apoptosis in human NCI-H460/R cells transfected with MDR assessed as late apoptotic cells at 10 uM after 24 hrs by Annexin V/propidium iodide-staining based flow cytometry (reference value: 0.84 +/- 0.01%); format: functional
A549 [5] = experiment: Induction of apoptosis in human A549 cells assessed as necrotic cells at 10 uM after 24 hrs by Annexin V/propidium iodide-staining based flow cytometry (reference value: 1.52 +/- 0.05%); format: functional
NCI-H460 [6] = experiment: Cytotoxicity against human NCI-H460 cells assessed as reduction in cell viability after 72 hrs by MTT assay; format: functional, cell-based; conditions: NCI-H460, 72 h
A549 [7] = experiment: Induction of DNA damage response in human A549 cells assessed as increase in H2AX expression at 10 uM after 24 hrs by alexa fluor 488-staining based flow cytometry; format: functional, cell-based
HaCaT [8] = experiment: Induction of apoptosis in human HaCaT cells assessed as early apoptotic cells at 10 uM after 24 hrs by Annexin V/propidium iodide-staining based flow cytometry (reference value: 0.23 +/- 0.01%); format: cell-based
NCI-H661 [9] = experiment: Induction of apoptosis in human NCI-H661 cells assessed as viable cells at 10 uM after 24 hrs by Annexin V/propidium iodide-staining based flow cytometry (reference value: 96.16 +/- 0.96%); format: functional; conditions: NCI-H661, 24 h, read-out: Activity
[10] = Cytotoxicity against human NCI-H460/R cells transfected with MDR assessed as reduction in cell viability after 72 hrs by MTT assay; format: functional, cell-based; conditions: NCI-H460, 72 h
SiHa = experiment: Cytotoxicity against human SiHa cells assessed as reduction in cell viability after 72 hrs by MTT assay; format: functional, cell-based
NCI-H661 [11] = experiment: Induction of apoptosis in human NCI-H661 cells assessed as necrotic cells at 10 uM after 24 hrs by Annexin V/propidium iodide-staining based flow cytometry (reference value: 2.58 +/- 0.05%); format: functional
HaCaT [12] = experiment: Induction of apoptosis in human HaCaT cells assessed as late apoptotic cells at 10 uM after 24 hrs by Annexin V/propidium iodide-staining based flow cytometry (reference value: 2.26 +/- 0.09%); format: cell-based
A549 [13] = experiment: Cytotoxicity against human A549 cells assessed as reduction in cell viability after 72 hrs by MTT assay; format: functional, cell-based; conditions: A549, 72 h
[14] = Induction of apoptosis in human NCI-H460/R cells transfected with MDR assessed as viable cells at 10 uM after 24 hrs by Annexin V/propidium iodide-staining based flow cytometry (reference value: 95.76 +/- 2.87%); format: functional; conditions: NCI-H460, 24 h, read-out: Activity
NCI-H661 [15] = experiment: Induction of apoptosis in human NCI-H661 cells assessed as early apoptotic cells at 10 uM after 24 hrs by Annexin V/propidium iodide-staining based flow cytometry (reference value: 0.31 +/- 0.01%); format: functional
NCI-H661 [16] = experiment: Induction of DNA damage response in human NCI-H661 cells assessed as increase in H2AX expression at 10 uM after 24 hrs by alexa fluor 488-staining based flow cytometry; format: functional, cell-based
A549 [17] = experiment: Induction of apoptosis in human A549 cells assessed as late apoptotic cells at 10 uM after 24 hrs by Annexin V/propidium iodide-staining based flow cytometry (reference value: 1.54 +/- 0.03%); format: functional
Homo sapiens [18] = species on record: Homo sapiens; experiment: Induction of DNA damage response in human NCI-H460/R cells transfected with MDR assessed as increase in H2AX expression at 10 uM after 24 hrs by alexa fluor 488-staining based flow cytometry; format: functional, cell-based
[19] = Induction of apoptosis in human NCI-H460/R cells transfected with MDR assessed as early apoptotic cells at 10 uM after 24 hrs by Annexin V/propidium iodide-staining based flow cytometry (reference value: 0.22 +/- 0.01%); format: functional
NCI-H460 [20] = experiment: Induction of apoptosis in human NCI-H460 cells assessed as early apoptotic cells at 10 uM after 24 hrs by Annexin V/propidium iodide-staining based flow cytometry (reference value: 0.45 +/- 0.01%); format: functional
HaCaT [21] = experiment: Induction of ROS generation in human HaCaT cells assessed as increase DHE positive cells at 10 uM after 24 hrs by DHE-staining based flow cytometry; format: cell-based
[22] = Induction of apoptosis in human NCI-H460/R cells transfected with MDR assessed as necrotic cells at 10 uM after 24 hrs by Annexin V/propidium iodide-staining based flow cytometry (reference value: 3.17 +/- 0.13%); format: functional
[23] = Induction of apoptosis in human HaCaT cells assessed as viable cells at 10 uM after 24 hrs by Annexin V/propidium iodide-staining based flow cytometry (reference value: 95.63 +/- 3.83%); format: cell-based; conditions: read-out: Activity
A549 [24] = experiment: Induction of ROS generation in human A549 cells assessed as increase DHE positive cells at 10 uM after 24 hrs by DHE-staining based flow cytometry; format: functional, cell-based
[25] = molecular target: Serine/threonine-protein kinase Chk2 (Homo sapiens) (UniProt O96017); experiment: Induction of CHK2 phosphorylation at T68 in human MCF7 cells at 10 uM pretreated for 30 mins followed by 10 J/m'2 irradiation and measured after 1 hr by Western blot analysis; format: cell-based
Serine/threonine-protein kinase Chk2 (Homo sapiens), sequence (O96017 whole entry): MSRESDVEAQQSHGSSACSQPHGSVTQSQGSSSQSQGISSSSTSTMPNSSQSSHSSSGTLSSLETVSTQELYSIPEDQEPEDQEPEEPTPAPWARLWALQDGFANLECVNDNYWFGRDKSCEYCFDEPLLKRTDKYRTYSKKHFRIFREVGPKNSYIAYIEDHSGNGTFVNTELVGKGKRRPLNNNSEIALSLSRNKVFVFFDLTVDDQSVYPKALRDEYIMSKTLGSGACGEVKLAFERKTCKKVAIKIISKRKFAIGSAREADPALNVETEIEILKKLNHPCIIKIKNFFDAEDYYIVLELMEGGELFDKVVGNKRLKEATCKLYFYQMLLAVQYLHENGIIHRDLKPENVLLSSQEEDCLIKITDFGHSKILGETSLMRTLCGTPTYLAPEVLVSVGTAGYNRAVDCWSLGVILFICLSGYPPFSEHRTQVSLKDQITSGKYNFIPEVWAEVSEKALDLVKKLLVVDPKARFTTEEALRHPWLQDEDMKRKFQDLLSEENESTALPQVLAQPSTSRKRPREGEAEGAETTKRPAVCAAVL

A549 [26] = experiment: Induction of apoptosis in human A549 cells assessed as early apoptotic cells at 10 uM after 24 hrs by Annexin V/propidium iodide-staining based flow cytometry (reference value: 0.48 +/- 0.01%); format: functional

## COC(=O)/C=C/C1(O)C=CC(=O)C=C1
NCI-H460 [1]
  Activity: 3.35%
A549 [2]
  viability at 10 µM: 92.8%
Homo sapiens [3]
  Activity: inactive
[4]
  Activity: 2.34%
A549 [5]
  Activity: 2.57%
NCI-H460 [6]
  IC50: 1.85 µM
A549 [7]
  Activity: Active
HaCaT [8]
  Activity: 0.44%
NCI-H661 [9]
  viability at 10 µM: 45.4%
[10]
  IC50: 2.06 µM
SiHa
  IC50: 8.89 µM
NCI-H661 [11]
  Activity: 44.82%
HaCaT [12]
  Activity: 2.85%
A549 [13]
  IC50: 4.32 µM
[14]
  viability at 10 µM: 90%
NCI-H661 [15]
  Activity: 0.18%
NCI-H661 [16]
  Activity: Active
A549 [17]
  Activity: 3.93%
Homo sapiens [18]
  Activity: Active
[19]
  Activity: 0.12%
NCI-H460 [20]
  Activity: 0.21%
HaCaT [21]
  Activity: Non-Toxic
[22]
  Activity: 7.51%
[23]
  viability at 24 h, 10 µM: 91.5%
A549 [24]
  Activity: Active
[25]
  Activity: Active
A549 [26]
  Activity: 0.72%
